Bounds are passed on as bounds.

The conditions of assay [1]: co-administration of intracarotid verapamil; n=14, P=0.04.
Assay [2] relates to New Zealand rabbits. Nature of the assay: Intracarotid propofol (0.33% and 1%) before, during and after flow arrest: duration of electrocerebral silence. It is filed as in vivo, rabbit.
Description: The study was conducted on eight New Zealand rabbits that were subjected to six drug challenges. […] The flow arrest was produced by intravenous injection of esmolol (10 mg) and adenosine (30 mg).
Assay [3] deals with rabbits.
Description: After the approval of the protocol by the institution's animal care and use committee, the study was conducted on New Zealand White rabbits (1.5-2.0 kg. in weight). The animals were given full access to food and water prior to the experiment. The animals were sedated with an intramuscular ketamine (50 mg/kg). Intravenous access was obtained through an earlobe vein. Hydrocortisone 10 mg was given after the placement of an intravenous line, as it prevents hypotension, which sometimes occurs after surgical intervention in this animal species. […] End-tidal CO2 (ETCO2) was continuously monitored with Novametrix Capnomac monitor (Novametrix Medical Systems Inc., Wallingford, Conn.). […]
Fronto-parietal leads were placed and used to monitor the bilateral electrocerebral activity. Electrocerebral activity was monitored using standard stainless steel needle electrodes (impedance is <10 k Ohms). […] Fronto-parietal electro-encephalographic signals were recorded using bioamplifier (ML136, AD Instruments, Grand Junction, Colo.), with a range of 100 mV, and electrocerebral activity (or electroencephalogram) recording mode having a pass-band 0.3 to 60 Hz. […]
For assay [4] the following is noted: intracarotid; cited from earlier work.

For the compound `COc1ccc(CCN(C)CCCC(C#N)(c2ccc(OC)c(OC)c2)C(C)C)cc1OC` (stereo not drawn) [verapamil], the “doses of intracarotid propofol required to produce 10 minutes of EEG silence” value in assay [1] was “significantly increased”.

As for `CC(C)c1cccc(C(C)C)c1O` [propofol], the “increase of the duration of EEG silence by changing concentration” value in assay [2] (0.33% vs 1% (1 or 3 mg) intracarotid, P=0.02, NS on post-hoc testing, n=8) is listed as 2-4 folds. In addition, in assay [2] (intracarotid 1 or 3 mg during esmolol/adenosine flow arrest, n=8, P<0.0001), the “increase of the duration of EEG silence by flow arrest” value was 15-20 folds. Besides, in assay [3] (after last intracarotid injection), the “time to complete recovery of EEG activity and systemic changes (blood pressure)” value was at most 10 min. Besides, the EEG silence result in assay [3] (intracarotid, volume of 0.4 ml with 0.5% propofol) is recorded as “produced EEG silence in all cases”.

`CCCC(C)C1(CC)C(=O)NC(=S)NC1=O` (stereo not drawn) [pentothal]: the “loading dose of 1% pentothal” value in assay [4] was “about 0.3±0.1 ml”.

The values above are taken from patent publication US20060047261A1, “Intra-arterial catheter for drug delivery” (priority 2004, published 2006).
